The values that follow come from ChEMBL document CHEMBL3044577, “Evaluation of biological activity of new hemiesters of 17-hydroxy-16,17-secoestra-1,3,5(10)-triene-16-nitrile” (Med Chem Res, 2011).

The source made the active and inactive calls. The rule behind the calls is not given here.

Series [1] relates to Rattus norvegicus. Put plainly: Antiestrogenic activity in female Rattus norvegicus Wistar (rat) assessed as decrease in estradiol benzoate-induced uterine weight at 5 mg/kg, sc QD for 3 days relative to control. Conditions: 72 h, route subcutaneous. The series is classed as functional.
In series [2] the test system is Rattus norvegicus. Briefly: Estrogenic activity in female Rattus norvegicus Wistar (rat)assessed as change in uterine weight at 5 mg/kg, sc QD for 3 days relative to control. Conditions: in vivo, 72 h.
Series [3] concerns MCF7. Briefly: Growth inhibition of Homo sapiens (human) MCF-7 cells at 10^-12 to 10^-6 M after 48 hr by MTT assay. It counts as functional. Background: Tetrazolium dyes change colour on reduction, which living cells bring about.
The test system of series [4] is HT-29. Briefly: Growth inhibition of Homo sapiens (human) HT-29 cells at 10^-12 to 10^-6 M after 48 hr by MTT assay. The series is classed as functional. Also noted: concentration or dose not given beside the values.
The subject of a further series is MDA-MB-231. It counts as functional, Homo sapiens.
Series [5] has as its target T1, Aromatase (Rattus norvegicus, UniProt P22443).
T1 sequence (P22443 whole entry): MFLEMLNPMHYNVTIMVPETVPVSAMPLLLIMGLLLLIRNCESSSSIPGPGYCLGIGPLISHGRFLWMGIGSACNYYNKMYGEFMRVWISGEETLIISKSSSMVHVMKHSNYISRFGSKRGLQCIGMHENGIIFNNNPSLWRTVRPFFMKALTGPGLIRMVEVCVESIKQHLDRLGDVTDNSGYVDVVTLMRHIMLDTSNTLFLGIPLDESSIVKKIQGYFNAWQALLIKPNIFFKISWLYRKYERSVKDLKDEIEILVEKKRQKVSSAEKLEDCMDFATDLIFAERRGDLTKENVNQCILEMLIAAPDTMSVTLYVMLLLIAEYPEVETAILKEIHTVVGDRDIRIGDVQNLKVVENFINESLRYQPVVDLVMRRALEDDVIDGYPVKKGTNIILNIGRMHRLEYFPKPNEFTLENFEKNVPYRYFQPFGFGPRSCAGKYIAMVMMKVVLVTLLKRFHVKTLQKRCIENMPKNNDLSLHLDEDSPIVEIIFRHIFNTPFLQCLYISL
Briefly: Inhibition of aromatase in Rattus norvegicus (rat) PMSG-treated denucleated ovarian fraction using testosterone as substrate at 50 uM after 15 min by radioimmuno assay. The conditions noted are these: 0.25 h.

Series [6] addresses T1, Aromatase. Put plainly: Inhibition of aromatase in Rattus norvegicus (rat) PMSG-treated denucleated ovarian fraction using testosterone as substrate at 10 uM after 15 min by radioimmuno assay. Conditions: 0.25 h.
For series [7], the system named is Rattus norvegicus. Put plainly: Antiestrogenic activity in female Rattus norvegicus Wistar (rat) assessed as decrease in estradiol benzoate-induced uterine weight at 25 mg/kg, sc QD for 3 days relative to control. The series is classed as functional. Conditions: 72 h, route subcutaneous.
Series [8] concerns Rattus norvegicus. Put plainly: Estrogenic activity in female Rattus norvegicus Wistar (rat) assessed as change in uterine weight at 25 mg/kg, sc QD for 3 days relative to control. The conditions noted are these: in vivo, 72 h.
For series [9], the system named is MCF7. Put plainly: Growth inhibition of Homo sapiens (human) MCF-7 cell growth at 10^-6 M after 48 hr by MTT assay. It counts as functional, cell-based.
Series [10] deals with MCF7. Briefly: Induction of Homo sapiens (human) MCF7 cell growth at 10^-6 M after 48 hr by MTT assay. The conditions noted are these: mcf7, 48 h, 1 µM.
Series [11] has as its system MCF7. Put plainly: Growth inhibition of Homo sapiens (human) MCF-7 cells at 10^-12 to 10^-7 M after 48 hr by MTT assay. It counts as functional.
Series [12] can be described thus: Growth inhibition of Homo sapiens (human) MRC5 cells at 10^-12 to 10^-6 M after 48 hr by MTT assay. The conditions noted are these: read-out: GI. It counts as cell-based.
For another series, the system named is MRC5. Briefly: Cytotoxicity against Homo sapiens (human) MRC5 cells at 10^-12 to 10^-6 M after 48 hr by MTT assay. The conditions noted are these: mrc5, 48 h. It counts as cell-based.
Series [13] deals with HT-29. Put plainly: Growth inhibition of Homo sapiens (human) HT-29 cells at 10^-12 to 10^-9 M after 48 hr by MTT assay. The series is classed as functional, cell-based.
Series [14] relates to MCF7. Briefly: Growth inhibition of Homo sapiens (human) MCF-7 cells at 10^-12 to 10^-9 M after 48 hr by MTT assay. The series is classed as functional.

Description for MDA-MB-231: Growth inhibition of Homo sapiens (human) MDA-MB-231 cells at 10^-12 to 10^-6 M after 48 hr by MTT assay

A word on the inhibition in vivo: it is the relative decrease from the control value, in per cent. For the molecule `C[C@]1(CO)CC[C@@H]2c3ccc(O)cc3CC[C@H]2[C@@H]1CC#N`, in the series with Rattus norvegicus [1], the inhibition in vivo at 5 mg/kg amounted to 21.1%. The Activity in the series on Rattus norvegicus [2] was -2.06%.
As for `C[C@]1(COC(=O)CCC(=O)O)CC[C@@H]2c3ccc(O)cc3CC[C@H]2[C@@H]1CC#N`, the “growth inhibition (GI)” value in the series on MCF7 [3], in the series with HT-29 [4] and with MDA-MB-231 was 30% throughout. Also, the inhibition at 50 µM at Aromatase [5] worked out at 0.1%. The inhibition at 10 µM against Aromatase [6] was -10.6%. Also, the inhibition in vivo at 25 mg/kg with Rattus norvegicus [7] came out at 11.9%. Besides, in the series with Rattus norvegicus [1], the inhibition in vivo at 5 mg/kg is 41.6%. The Activity is 6.42% in the series on Rattus norvegicus [8] and -6.78% in the series with Rattus norvegicus [2].
For `C[C@]1(CO)CC[C@@H]2c3ccc(OCc4ccccc4)cc3CC[C@H]2[C@@H]1CC#N`, in the series on Rattus norvegicus [1], the inhibition in vivo at 5 mg/kg stood at 31.5%. In addition, in the series with Rattus norvegicus [2], the Activity is 0.71%.
As for `CC/C(=C(\c1ccccc1)c1ccc(OCCN(C)C)cc1)c1ccccc1.O=C(O)CC(O)(CC(=O)O)C(=O)O` [TAMOXIFEN CITRATE], the “growth inhibition (GI)” value in the series with MCF7 [9] was “inactive”. The Activity entry with MCF7 [10] is on record as “Non-toxic”; in the series on Rattus norvegicus [8], 39.36%; in the series with Rattus norvegicus [2], 39.78%. Further, the “growth inhibition (GI)” value with MCF7 [11] and in the series with HT-29 [4] was “Active” each time. Besides, the “growth inhibition (GI)” value in the series on MDA-MB-231 is recorded as 30%. In addition, the inhibition in vivo at 25 mg/kg in the series on Rattus norvegicus [7] is 62.8%.
Consider `C[C@]1(COC(=O)CCCC(=O)O)CC[C@@H]2c3ccc(O)cc3CC[C@H]2[C@@H]1CC#N`, for which the “growth inhibition (GI)” value with MCF7 [3], in the series on HT-29 [4] and in the series on MDA-MB-231 was 10% each time. The inhibition at 48 h in series [12] was found to be 10%. Moreover, the inhibition at 50 µM against Aromatase [5] stood at 67.3%. Moreover, the inhibition at 10 µM against Aromatase [6] came out at 16.6%. Besides, the inhibition in vivo at 5 mg/kg with Rattus norvegicus [1] was 13.8%. The Activity in the series with Rattus norvegicus [2] is reported as -9.63%.
Consider `C[C@]1(COC(=O)CCC(=O)O)CC[C@@H]2c3ccc(OCc4ccccc4)cc3CC[C@H]2[C@@H]1CC#N`, for which the “growth inhibition (GI)” value in the series on MCF7 [3], in the series with HT-29 [4] and in the series with MDA-MB-231 was 40% in each case. In addition, the inhibition at 48 h in [12] came out at 40%. Further, on Aromatase [5], the inhibition at 50 µM stood at 21.2%. Also, the inhibition at 10 µM on Aromatase [6] came to 7.02%. Besides, the inhibition in vivo at 5 mg/kg in the series with Rattus norvegicus [1] stood at 2.82%. The Activity with Rattus norvegicus [2] is listed as -2.28%.
For the molecule `C[C@]1(COC(=O)CCCC(=O)O)CC[C@@H]2c3ccc(OCc4ccccc4)cc3CC[C@H]2[C@@H]1CC#N`, the values for the Activity result in the series on MRC5 and in the series with Rattus norvegicus [2] were “Non-toxic” and -3.92%, respectively. In the series on HT-29 [13], the “growth inhibition (GI)” value is “Active”. For the same molecule, the “growth inhibition (GI)” value in the series with MCF7 [14] was 20%. Moreover, at Aromatase [5], the inhibition at 50 µM stood at 88.2%. Further, on Aromatase [6], the inhibition at 10 µM came out at 17.9%. In addition, the inhibition in vivo at 5 mg/kg with Rattus norvegicus [1] came out at 8.5%.
In the case of `C[C@]12CC[C@@H]3c4ccc(O)cc4CC[C@H]3[C@@H]1CC[C@@H]2O` [ESTRADIOL], the “growth inhibition (GI)” value in the series on MCF7 [9] was “inactive”. The Activity entry in the series on MCF7 [10] is “Non-toxic”. Moreover, the “growth inhibition (GI)” value in the series with MCF7 [11] was 10%; in the series on HT-29 [4], 20%.
